Measurements published in patent publication US10577351B2, “Therapeutic polymeric nanoparticles and methods of making and using same” (ASTRAZENECA AB, priority 2013, dated 2020).
Read-outs that look alike come from different tables or passages of the source.

How the values were obtained:
[1] = reported (SciFinder); cited from earlier work
[2] = reported (SciFinder); cited from earlier work; remark: listed apart in the source
[3] = Acid dissociation constant (pKa); assay type: physicochemical
bone marrow [4] = experiment: Bone marrow cellularity by FACS (total nucleated cells); assay type: in vivo, rat; settings: 25 mg/kg IV; FIG. 14
Protocol: (§1) Rats were injected IV with BIND Placebo (0 mg/kg), or AZD1152/AZD1152 hqpa Formulation E/F1/F2 at 25 mg/kg at the times indicated and sacrificed at the times indicated.
Secondly bone marrow flushes taken to examine bone marrow cellularity by FACs. At termination bone marrow from each Femur was taken into 50% FBS and 50% PBS on ice. Cells were pelleted by centrifugation at 4° C. and re-suspended in PBS. Cells were pelleted again at 4° C. and re-suspended in PBS. 50 μl of LDS-751 (0.5 mg/ml in methanol) was added and cells vortexed. Finally the cells were filtered through a 50 micron filter into a FACS tube. Samples were analysed on a FACS Canto (Beckton Dickinson). A bone marrow hypocellularity is represented as a total of nucleated cells relative to untreated controls. The percentage cellularity of each bone marrow sample in each individual animal are shown. The dotted line represents the lowest percentage total nucleated cell value seen in animals receiving only vehicle (empty nanoparticle).

[5] = test system: SW620 human tumour xenograft; experiment: SW620 anti-tumour study in male nude mouse; assay type: in vivo
Protocol: Male nude mice were bred at AstraZeneca. Animals were inoculated in the flank with SW620 human tumour cells, and then randomized onto study when tumours reached approximately 0.25 cm^3. AZD1152 was dosed in tris buffer vehicle at the concentration indicated. AZD1152 hqpa nanoparticle formulation E was dosed in physiological saline. Previous pre-clinical work and methodologies with AZD1152 are published in Wilkinson et al, Clinical Cancer Research 2007 (13) 3682. […] In this study AZD1152 was dosed on day 0-3 at 25 mg/kg (total 100 mg/kg). Formulation E was dosed at a variety of different schedules as described above.

bone marrow [6] = experiment: Bone marrow hypocellularity, pathologist assessment of haematoxylin and eosin sections; assay type: in vivo, rat; settings: 25 mg/kg IV; day 5 and 9; FIG. 13
Protocol: Female nude rats were bred at AstraZeneca, and put into study at a minimum weight of 150 g. Animals were inoculated in the flank with SW620 human tumour cells and dosing started when tumours had reached 0.4-0.9 cm^3. Compounds were dosed intravenously (IV) at 5 ml/kg with either control, AZD1152 or AZD1152 hqpa nanoparticle formulation B or E. AZD1152 was dosed in tris buffer vehicle (days 1-4 IV, each dose at 25 mg/kg) and AZD1152 hqpa nanoparticle formulation was dosed in physiological saline (dosed 25 mg/kg on each of days 1 and 3 IV). At the time points indicated animals were sacrificed and tumour, blood and femur/bone marrow samples taken. Effects of the treatments on the tumour and the bone marrow were scored by a pathologist assessment of haematoxylin and eosin stained sections derived from the femur.
as §1
Bone marrows samples were extracted from each animal. Firstly samples of bone marrow were processed for pathological assessment. […] Bone marrow integrity was scored by the pathologist. […]
Bone marrow samples were extracted from each animal and processed for pathological assessment. […] Bone marrow integrity was scored by the pathologist. […]

[7] = test system: histone H3 phosphorylation on Ser10 (pHH3), surrogate marker of Aurora B kinase activity; experiment: Tumour phospho-histone H3 (pHH3) biomarker in SW620 tumours by flow cytometry; assay type: in vivo, rat; settings: 24 hrs post single dose 25 mg/kg IV
Protocol: This experiment compares the effect of Formulation E, F1 and F2 on a phospho-histone H3 phosphorylation (pHH3) in SW620 tumours. AZD1152 was included as a positive control. The activity was measured as an inhibition of histone H3 phosphorylation on Ser^10 (pHH3 as a sensitive, highly dynamic surrogate marker of Aurora B kinase activity). Average level of pHH3 positivity [%] was calculated for the cells in G2/M phase of the cell cycle for each treatment group at 24 hrs and 96 hrs post 1st dose and compared to the pHH3 level observed for the cells in G2/M cell cycle phase that were extracted from the tumours treated with BIND Placebo (referred here as 100%). Statistical significance was calculated using Student t-test assuming unequal variances (*p<0.05, **p<0.01, ***p<001, n.s. P>0.05). […]
The activity was measured as an inhibition of histone H3 phosphorylation on Ser10 (pHH3 as a sensitive, highly dynamic surrogate marker of Aurora B kinase activity). Average level of pHH3 positivity [%] was calculated for the cells in G2/M phase of the cell cycle for each treatment group at 24, 48, 72, 96 and 120 hrs post 1 dose and compared to the pHH3 level observed for the cells in G2/M cell cycle phase that were extracted from the tumours treated with BIND Placebo (referred here as 100%). […]

O=C(O)c1cc2ccccc2c(Cc2c(O)c(C(=O)O)cc3ccccc23)c1O [pamoic acid, 4,4′-methylenebis[3-hydroxy-2-naphthoic acid]]
log P [1]: 6.169 | pKa1 [2]: 2.67

CCN(CCO)CCCOc1ccc2c(Nc3cc(CC(=O)Nc4cccc(F)c4)[nH]n3)ncnc2c1 [AZD1152 hqpa, 2-(3-((7-(3-(ethyl(2-hydroxyethyl)amino)propoxy)quinazolin-4-yl)amino)-1H-pyrazol-5-yl)-N-(3-fluorophenyl)acetamide]
pKa1 [3]: 5.7 | pKa2 [3]: 8.46

CCN(CCCOc1ccc2c(Nc3cc(CC(=O)Nc4cccc(F)c4)n[nH]3)ncnc2c1)CCOP(=O)(O)O [AZD1152, 2-(ethyl(3-((4-((5-(2-((3-fluorophenyl)amino)-2-oxoethyl)-1H-pyrazol-3-yl)amino)quinazolin-7-yl)oxy)propyl)amino)ethyl dihydrogen phosphate]
bone marrow cellularity, total nucleated cells relative to untreated controls (bone marrow [4]): large impact on bone marrow | efficacy of IV 25 mg/kg for 4 days (100 mg/kg total dose) ([5]; SW620 xenograft model in rat and mouse): maximal efficacy | dose at which maximum activity was achieved ([5]; total dose equivalent, SW620): 100 mg/kg | bone marrow hypocellularity score (0-4) (bone marrow [6]): large impact on bone marrow | proportion of pHH3-positive cells within G2/M phase ([7]; FIG. 12): maximally suppressed | proportion of pHH3-positive cells within G2/M phase ([7]; FIG. 15): maximally suppressed
